Measurements as given in ChEMBL document CHEMBL1201862, “PubChem BioAssay data set” (2004).
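Cultured in 96-well plates, cells were exposed to test compound for 48 hours across five concentrations. The concentration for 50% growth inhibition is given as GI50.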 Activity calls are given as the source filed them. Rule as the data show it: active = GI50 up to about 1.1 µM and inactive = higher.

What was measured:
Test in all cases: NCI anticancer screen, dose series, 48 h
[1] = tested on: LOX IMVI
[2] = tested on: HT-29
[3] = tested on: Hs-578T
[4] = tested on: MDA-MB-435
[5] = tested on: CCRF-CEM
[6] = tested on: SK-MEL-28
[7] = tested on: A498
[8] = tested on: OVCAR-8
[9] = tested on: OVCAR-3
[10] = tested on: HCT-15
[11] = tested on: M14
[12] = tested on: SR
[13] = tested on: HOP-62
[14] = tested on: UO-31
[15] = tested on: K562
[16] = tested on: NCI/ADR-RES
[17] = tested on: HOP-92
[18] = tested on: HCT-116
[19] = tested on: SK-OV-3
[20] = tested on: MDA-N

Structure (SMILES) | GI50 [1] | GI50 [2] | GI50 [3] | GI50 [4] | GI50 [5] | GI50 [6] | GI50 [7] | GI50 [8] | GI50 [9] | GI50 [10] [µM] | GI50 [11] | GI50 [12] | GI50 [13] | GI50 [14] | GI50 [15] | GI50 [16] | GI50 [17] | GI50 [18] | GI50 [19] | GI50 [20]
c1ccc(C2C(=P(c3ccccc3)(c3ccccc3)c3ccccc3)P=PC2[P+](c2ccccc2)(c2ccccc2)c2ccccc2)cc1.c1ccc([B-](c2ccccc2)(c2ccccc2)c2ccccc2)cc1 (stereo not drawn) | 0.333 µM (active) | 0.354 µM (active) | 0.679 µM (active) | 0.171 µM (active) | 2.25 µM (inactive) | 1.85 µM (inactive) | 0.818 µM (active) | 0.252 µM (active) | 0.579 µM (active) | 28.1 | 0.286 µM (active) | 0.966 µM (active) | 0.841 µM (active) | 18.8 µM (inactive) | 0.173 µM (active) | 3.48 µM (inactive) | 0.555 µM (active) | 0.0841 µM (active) | 1.85 µM (inactive) | 0.139 µM (active)
Brc1ccc(-c2ccc(-c3ccc(-c4ccc(Br)s4)s3)s2)s1 | > 100 µM (inactive) | > 100 µM (inactive) | > 100 µM (inactive) | > 100 µM (inactive) | > 100 µM (inactive) | > 100 µM (inactive) | > 100 µM (inactive) | > 100 µM (inactive) | > 100 µM (inactive) | > 100 | > 100 µM (inactive) | > 100 µM (inactive) | > 100 µM (inactive) | > 100 µM (inactive) | > 100 µM (inactive) | > 100 µM (inactive) | > 100 µM (inactive) | > 100 µM (inactive) | > 100 µM (inactive) | > 100 µM (inactive)
C/C=C1\CN(C(=O)OC(C)(C)C)C1C(=O)OC(C)(C)C (stereo not drawn) | > 100 µM (inactive) | > 100 µM (inactive) | 27.7 µM (inactive) | > 100 µM (inactive) | > 100 µM (inactive) | > 100 µM (inactive) | > 100 µM (inactive) | > 100 µM (inactive) | 94 µM (inactive) | > 100 | > 100 µM (inactive) | > 100 µM (inactive) | > 100 µM (inactive) | 63.7 µM (inactive) | > 100 µM (inactive) | > 100 µM (inactive) | > 100 µM (inactive) | > 100 µM (inactive) | > 100 µM (inactive) | > 100 µM (inactive)
NCCCNC1(c2cc3ccccc3s2)CCCCC1 | 2.31 µM (inactive) | 2.95 µM (inactive) | 11.9 µM (inactive) | 1.94 µM (inactive) | 2.48 µM (inactive) | 2.12 µM (inactive) | 2.72 µM (inactive) | 9.62 µM (inactive) | 7.19 µM (inactive) | 4.49 | 1.8 µM (inactive) | 1.77 µM (inactive) | 10.7 µM (inactive) | 1.93 µM (inactive) | 1.85 µM (inactive) | 13.5 µM (inactive) | 11.6 µM (inactive) | 2.06 µM (inactive) | 13.5 µM (inactive) | 1.78 µM (inactive)
O=C1c2cc([N+](=O)[O-])sc2C(=O)c2cc([N+](=O)[O-])sc21 | 1.36 µM (inactive) | 3.24 µM (inactive) | 9.18 µM (inactive) | 2.1 µM (inactive) | 0.711 µM (active) | 3.23 µM (inactive) | 16.2 µM (inactive) | 5.79 µM (inactive) | 2.41 µM (inactive) | 1.73 | 3.78 µM (inactive) | 0.268 µM (active) | 6.21 µM (inactive) | 3.19 µM (inactive) | 0.432 µM (active) | 3.62 µM (inactive) | 1.85 µM (inactive) | 1.67 µM (inactive) | 10.1 µM (inactive) | 2.34 µM (inactive)
Cn1c(=O)n2n(c1=O)Cc1cccc3cccc(c13)C2 | > 100 µM (inactive) | > 100 µM (inactive) | > 100 µM (inactive) | > 100 µM (inactive) | > 100 µM (inactive) | > 100 µM (inactive) | > 100 µM (inactive) | > 100 µM (inactive) | > 100 µM (inactive) | > 100 | > 100 µM (inactive) | > 100 µM (inactive) | – | 63.8 µM (inactive) | > 100 µM (inactive) | > 100 µM (inactive) | > 100 µM (inactive) | > 100 µM (inactive) | > 100 µM (inactive) | > 100 µM (inactive)
O=C1c2ccccc2C2=Cc3ccccc3C(O)N12 (stereo not drawn) | 38.6 µM (inactive) | > 100 µM (inactive) | 68.4 µM (inactive) | > 100 µM (inactive) | 36.5 µM (inactive) | 37.1 µM (inactive) | > 100 µM (inactive) | > 100 µM (inactive) | > 100 µM (inactive) | > 100 | > 100 µM (inactive) | 25.8 µM (inactive) | > 100 µM (inactive) | 18.1 µM (inactive) | 36.1 µM (inactive) | > 100 µM (inactive) | 41.3 µM (inactive) | > 100 µM (inactive) | > 100 µM (inactive) | > 100 µM (inactive)
O=C(CC(c1ccccc1)C1C(=O)NC(=S)NC1=O)c1ccc([N+](=O)[O-])cc1 (stereo not drawn) | 63.4 µM (inactive) | > 100 µM (inactive) | > 100 µM (inactive) | > 100 µM (inactive) | > 100 µM (inactive) | > 100 µM (inactive) | > 100 µM (inactive) | > 100 µM (inactive) | > 100 µM (inactive) | > 100 | > 100 µM (inactive) | 41.1 µM (inactive) | > 100 µM (inactive) | > 100 µM (inactive) | > 100 µM (inactive) | > 100 µM (inactive) | > 100 µM (inactive) | 76.6 µM (inactive) | > 100 µM (inactive) | > 100 µM (inactive)
O=C(Nc1ccc(Cl)c(C(F)(F)F)c1)C(=O)c1c(O)c2ccccc2oc1=O | > 100 µM (inactive) | > 100 µM (inactive) | > 100 µM (inactive) | > 100 µM (inactive) | > 100 µM (inactive) | > 100 µM (inactive) | > 100 µM (inactive) | > 100 µM (inactive) | > 100 µM (inactive) | > 100 | > 100 µM (inactive) | > 100 µM (inactive) | > 100 µM (inactive) | > 100 µM (inactive) | > 100 µM (inactive) | > 100 µM (inactive) | > 100 µM (inactive) | > 100 µM (inactive) | > 100 µM (inactive) | > 100 µM (inactive)
CC[C@@]1(O)C(=O)OCc2c1cc1n(c2=O)Cc2c-1nc1ccccc1c2/C=N\NC(=O)C(N)=O | 0.0389 µM (active) | 4.36 µM (inactive) | 56.9 µM (inactive) | 2.32 µM (inactive) | < 0.01 µM (active) | 17.8 µM (inactive) | 0.457 µM (active) | 0.248 µM (active) | 18.3 µM (inactive) | 14.7 | 0.208 µM (active) | < 0.01 µM (active) | 0.107 µM (active) | 0.284 µM (active) | 0.505 µM (active) | 1.6 µM (inactive) | 0.222 µM (active) | 0.161 µM (active) | 0.467 µM (active) | 5.61 µM (inactive)
C1COCCN1.S=C(S)N1CCOCC1 | 18.3 µM (inactive) | 0.811 µM (active) | > 100 µM (inactive) | > 100 µM (inactive) | 0.526 µM (active) | 10.3 µM (inactive) | 24.9 µM (inactive) | > 100 µM (inactive) | 2.68 µM (inactive) | 6.7 | 12.8 µM (inactive) | 1.04 µM (active) | 92.3 µM (inactive) | > 100 µM (inactive) | 1.46 µM (inactive) | > 100 µM (inactive) | 30 µM (inactive) | 2.12 µM (inactive) | 5.4 µM (inactive) | 94 µM (inactive)
CCOC(=O)C1(Cc2ccccc2)Cc2cc3c(cc2C1=O)CCC3 (stereo not drawn) | > 100 µM (inactive) | > 100 µM (inactive) | > 100 µM (inactive) | > 100 µM (inactive) | > 100 µM (inactive) | > 100 µM (inactive) | > 100 µM (inactive) | > 100 µM (inactive) | > 100 µM (inactive) | > 100 | 92 µM (inactive) | > 100 µM (inactive) | > 100 µM (inactive) | > 100 µM (inactive) | > 100 µM (inactive) | > 100 µM (inactive) | > 100 µM (inactive) | > 100 µM (inactive) | > 100 µM (inactive) | > 100 µM (inactive)
CSc1c(C#N)c(N)nc2c(/N=N\c3ccc(Cl)cc3)c(N)nn12 | 1.52 µM (inactive) | 3.34 µM (inactive) | 1.23 µM (inactive) | 9.89 µM (inactive) | 2.17 µM (inactive) | 2.58 µM (inactive) | 39.2 µM (inactive) | 2.08 µM (inactive) | 1.85 µM (inactive) | 2.26 | 18.6 µM (inactive) | 2.55 µM (inactive) | 10.7 µM (inactive) | 2.13 µM (inactive) | 2.08 µM (inactive) | 16.8 µM (inactive) | 3.29 µM (inactive) | 7.87 µM (inactive) | 33 µM (inactive) | 8.04 µM (inactive)
O=C(O)Cc1ccc2nc(COC(=O)c3ccccc3)sc2c1 | > 100 µM (inactive) | – | > 100 µM (inactive) | > 100 µM (inactive) | < 0.01 µM (active) | > 100 µM (inactive) | > 100 µM (inactive) | > 100 µM (inactive) | > 100 µM (inactive) | > 100 | > 100 µM (inactive) | > 100 µM (inactive) | > 100 µM (inactive) | > 100 µM (inactive) | > 100 µM (inactive) | > 100 µM (inactive) | > 100 µM (inactive) | 83.8 µM (inactive) | > 100 µM (inactive) | > 100 µM (inactive)
